Assay results taken from ChEMBL document CHEMBL1201862, “PubChem BioAssay data set” (2004).
Active and inactive are the calls of the source.

Legend:
Prothrombin = Prothrombin (Bos taurus, UniProt P00735); experiment: thrombin inhibition, dose response, biochemical, fluorescence polarization, uHTS hits (AID 602369); type: functional
[1] = target: 72 kDa type IV collagenase (Homo sapiens, UniProt P08253); experiment: Dose Response validation of uHTS RPN11 inhibitor hits using a MMP-2 Fluorescence assay.; type: functional
[2] = target: 26S proteasome non-ATPase regulatory subunit 14 (Homo sapiens, UniProt O00487); experiment: inhibition of proteasome subunit RPN11 – biochemical, fluorescence polarization, uHTS hits, confirmation (AID 602368); type: functional
[3] = target: Arf-GAP with SH3 domain, ANK repeat and PH domain-containing protein 1 (Homo sapiens, UniProt Q9ULH1); type: functional;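 further: biochemical fluorescence polarization dose–response screen measuring inhibition of ASAP1; ASAP1 GAP domain stimulating GTP hydrolysis by truncated human ARF1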
[4] = cytotoxicity in HeLa cells, dose response, cytotoxicity control, cell-based, plate reader, dry powder (AID 651946); type: functional
[5] = T. cruzi growth inhibition in host cells, dose response, cell-based, plate reader, dry powder, set 2 (AID 652275); type: functional
[6] = target: T1, Matrix metalloproteinase-14 (Homo sapiens, UniProt P50281); experiment: SAR confirmation of uHTS hits for a small molecule inhibitors of MT1-MMP activation in a fluorescence assay.; type: functional
[7] = target: T1, Matrix metalloproteinase-14; experiment: Dose Response confirmation of uHTS hits for a small molecule inhibitors of MT1-MMP activation in a fluorescence assay set 2.; type: functional
Beta-lactamase [8] = target: T2, Beta-lactamase (Pseudomonas aeruginosa, UniProt Q79MP6); experiment: […] counterscreen for selective VIM-2 inhibitors: dose response biochemical high throughput screening assay to identify inhibitors of IMP-1 metallo-beta-lactamase.
Beta-lactamase [9] = target: T2, Beta-lactamase; experiment: IMP-1 metallo-beta-lactamase inhibitors, dose response, selectivity assay for VIM-2 inhibitor project, biochemical, epi-absorbance (AID 1920)
Beta-lactamase [10] = target: Beta-lactamase (Salmonella choleraesuis (strain SC-B67), UniProt Q5J463); experiment: Epi-absorbance-based counterscreen for selective VIM-2 inhibitors: dose response biochemical high throughput screening assay to identify inhibitors of TEM-1 serine-beta-lactamase.
[11] = HEK293T cytotoxicity, dose response, cytotoxicity control for miR-122 modulator project, cell-based, inhibitor set, cherry-pick, set 2 (AID 720697); type: functional
[12] = target: Protein disulfide-isomerase (Homo sapiens, UniProt P07237); experiment: PDI inhibitors, insulin turbidity readout, confirmation, biochemical, dry powder samples, set 2 (AID 652146)
[13] = A549 cell cytotoxicity, dose response, cytotoxicity control, plate reader, cherry-pick, antagonist series (AID 743412); type: functional, cell-based
[14] = LGR2 antagonists, dose response, cell-based, HEK293, CRE-luciferase reporter, cherry pick (AID 743342); type: functional
[15] = target: Histone-lysine N-methyltransferase NSD2 (Homo sapiens, UniProt O96028); type: biochemical
Histone-lysine N-methyltransferase NSD2, sequence (O96028 whole entry): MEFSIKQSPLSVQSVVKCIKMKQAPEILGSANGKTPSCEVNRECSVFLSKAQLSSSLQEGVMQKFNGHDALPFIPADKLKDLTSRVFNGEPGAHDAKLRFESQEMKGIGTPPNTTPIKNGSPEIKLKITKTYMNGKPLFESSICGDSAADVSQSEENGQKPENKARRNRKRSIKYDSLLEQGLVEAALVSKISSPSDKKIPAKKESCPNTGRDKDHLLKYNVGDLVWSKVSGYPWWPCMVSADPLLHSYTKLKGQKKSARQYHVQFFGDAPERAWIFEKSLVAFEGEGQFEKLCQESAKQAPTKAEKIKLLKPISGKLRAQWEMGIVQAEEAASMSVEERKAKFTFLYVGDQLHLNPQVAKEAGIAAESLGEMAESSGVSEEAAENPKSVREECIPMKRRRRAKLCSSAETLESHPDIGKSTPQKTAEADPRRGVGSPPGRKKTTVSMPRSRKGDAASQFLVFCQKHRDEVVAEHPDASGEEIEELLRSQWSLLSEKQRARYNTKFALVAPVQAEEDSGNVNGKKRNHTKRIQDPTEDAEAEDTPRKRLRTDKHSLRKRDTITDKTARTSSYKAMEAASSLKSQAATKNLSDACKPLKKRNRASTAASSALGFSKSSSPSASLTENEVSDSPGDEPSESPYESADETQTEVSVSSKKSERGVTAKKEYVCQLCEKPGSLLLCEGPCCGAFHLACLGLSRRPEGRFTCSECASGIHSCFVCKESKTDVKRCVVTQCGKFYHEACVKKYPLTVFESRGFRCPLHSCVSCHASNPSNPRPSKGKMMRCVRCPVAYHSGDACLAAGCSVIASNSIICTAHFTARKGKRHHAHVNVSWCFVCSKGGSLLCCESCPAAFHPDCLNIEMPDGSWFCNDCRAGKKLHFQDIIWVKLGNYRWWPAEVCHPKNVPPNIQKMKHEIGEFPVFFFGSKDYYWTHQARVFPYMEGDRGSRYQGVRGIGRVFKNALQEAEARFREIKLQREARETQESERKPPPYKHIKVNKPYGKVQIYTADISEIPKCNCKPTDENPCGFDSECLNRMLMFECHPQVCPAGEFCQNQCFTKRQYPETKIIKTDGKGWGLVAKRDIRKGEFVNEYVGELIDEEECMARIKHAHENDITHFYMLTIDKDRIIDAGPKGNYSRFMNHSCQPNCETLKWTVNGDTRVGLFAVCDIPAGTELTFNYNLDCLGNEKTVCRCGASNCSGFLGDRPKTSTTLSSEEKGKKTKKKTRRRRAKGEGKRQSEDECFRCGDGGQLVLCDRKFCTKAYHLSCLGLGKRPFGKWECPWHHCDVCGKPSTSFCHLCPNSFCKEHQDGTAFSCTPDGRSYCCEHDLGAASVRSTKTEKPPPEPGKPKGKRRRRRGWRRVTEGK

T2 sequence (Q79MP6 whole entry): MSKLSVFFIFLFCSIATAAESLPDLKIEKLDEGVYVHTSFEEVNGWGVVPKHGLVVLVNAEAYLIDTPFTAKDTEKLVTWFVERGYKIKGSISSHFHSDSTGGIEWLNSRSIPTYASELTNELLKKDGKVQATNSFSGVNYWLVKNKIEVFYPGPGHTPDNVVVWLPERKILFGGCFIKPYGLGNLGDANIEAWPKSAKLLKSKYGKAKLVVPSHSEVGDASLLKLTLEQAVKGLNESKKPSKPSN
Arf-GAP with SH3 domain, ANK repeat and PH domain-containing protein 1, sequence (Q9ULH1 whole entry, the tested form may be a part): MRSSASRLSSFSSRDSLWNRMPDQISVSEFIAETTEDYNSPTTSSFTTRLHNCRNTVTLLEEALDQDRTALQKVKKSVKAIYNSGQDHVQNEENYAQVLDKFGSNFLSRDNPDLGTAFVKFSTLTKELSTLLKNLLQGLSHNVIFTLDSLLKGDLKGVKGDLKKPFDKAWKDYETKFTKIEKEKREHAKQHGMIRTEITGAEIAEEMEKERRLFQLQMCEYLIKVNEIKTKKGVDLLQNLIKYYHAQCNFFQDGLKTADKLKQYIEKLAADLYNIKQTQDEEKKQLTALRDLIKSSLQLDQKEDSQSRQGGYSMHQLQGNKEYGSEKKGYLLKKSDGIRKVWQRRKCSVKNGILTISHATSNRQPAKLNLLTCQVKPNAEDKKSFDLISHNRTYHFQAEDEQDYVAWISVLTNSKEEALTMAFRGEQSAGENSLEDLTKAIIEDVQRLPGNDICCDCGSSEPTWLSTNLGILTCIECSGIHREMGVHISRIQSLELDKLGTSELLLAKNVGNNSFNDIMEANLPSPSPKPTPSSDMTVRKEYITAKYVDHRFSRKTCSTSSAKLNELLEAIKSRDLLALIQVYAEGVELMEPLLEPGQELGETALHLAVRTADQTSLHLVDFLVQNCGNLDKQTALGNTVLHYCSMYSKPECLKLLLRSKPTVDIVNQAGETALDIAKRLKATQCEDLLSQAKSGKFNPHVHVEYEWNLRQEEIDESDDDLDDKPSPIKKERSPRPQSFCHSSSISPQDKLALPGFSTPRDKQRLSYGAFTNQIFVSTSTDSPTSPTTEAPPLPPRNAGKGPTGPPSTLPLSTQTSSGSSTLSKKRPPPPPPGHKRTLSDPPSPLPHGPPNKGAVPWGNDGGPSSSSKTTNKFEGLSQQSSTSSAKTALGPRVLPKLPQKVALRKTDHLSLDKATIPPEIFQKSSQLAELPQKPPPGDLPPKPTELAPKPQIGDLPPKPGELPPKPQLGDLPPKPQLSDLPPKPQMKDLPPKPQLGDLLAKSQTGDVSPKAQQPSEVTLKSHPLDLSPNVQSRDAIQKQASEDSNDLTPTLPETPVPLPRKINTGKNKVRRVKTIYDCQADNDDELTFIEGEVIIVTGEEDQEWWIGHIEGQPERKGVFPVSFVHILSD
Protein disulfide-isomerase, sequence (P07237 whole entry): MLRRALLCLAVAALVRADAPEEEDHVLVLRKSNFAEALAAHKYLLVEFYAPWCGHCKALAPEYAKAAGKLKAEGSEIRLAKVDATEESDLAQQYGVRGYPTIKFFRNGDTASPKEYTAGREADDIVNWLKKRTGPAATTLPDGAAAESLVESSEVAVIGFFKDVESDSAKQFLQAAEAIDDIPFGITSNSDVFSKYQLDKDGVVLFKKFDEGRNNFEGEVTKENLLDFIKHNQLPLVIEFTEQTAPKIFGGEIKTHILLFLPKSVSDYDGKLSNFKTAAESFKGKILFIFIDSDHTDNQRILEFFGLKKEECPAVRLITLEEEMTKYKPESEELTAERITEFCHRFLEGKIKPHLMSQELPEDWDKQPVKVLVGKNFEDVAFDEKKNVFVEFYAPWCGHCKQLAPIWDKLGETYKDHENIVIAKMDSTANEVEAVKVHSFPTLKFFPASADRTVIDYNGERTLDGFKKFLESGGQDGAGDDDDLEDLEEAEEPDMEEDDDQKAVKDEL
Beta-lactamase (Salmonella choleraesuis (strain SC-B67), UniProt Q5J463), sequence (Q5J463 whole entry): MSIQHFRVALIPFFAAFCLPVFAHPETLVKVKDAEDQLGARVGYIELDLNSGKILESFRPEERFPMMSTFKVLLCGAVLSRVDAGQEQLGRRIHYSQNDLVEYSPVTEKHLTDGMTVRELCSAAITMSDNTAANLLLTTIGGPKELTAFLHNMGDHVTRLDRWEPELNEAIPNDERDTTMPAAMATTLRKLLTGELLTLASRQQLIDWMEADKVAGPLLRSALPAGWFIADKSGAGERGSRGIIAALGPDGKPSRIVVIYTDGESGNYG
72 kDa type IV collagenase, sequence (P08253 whole entry): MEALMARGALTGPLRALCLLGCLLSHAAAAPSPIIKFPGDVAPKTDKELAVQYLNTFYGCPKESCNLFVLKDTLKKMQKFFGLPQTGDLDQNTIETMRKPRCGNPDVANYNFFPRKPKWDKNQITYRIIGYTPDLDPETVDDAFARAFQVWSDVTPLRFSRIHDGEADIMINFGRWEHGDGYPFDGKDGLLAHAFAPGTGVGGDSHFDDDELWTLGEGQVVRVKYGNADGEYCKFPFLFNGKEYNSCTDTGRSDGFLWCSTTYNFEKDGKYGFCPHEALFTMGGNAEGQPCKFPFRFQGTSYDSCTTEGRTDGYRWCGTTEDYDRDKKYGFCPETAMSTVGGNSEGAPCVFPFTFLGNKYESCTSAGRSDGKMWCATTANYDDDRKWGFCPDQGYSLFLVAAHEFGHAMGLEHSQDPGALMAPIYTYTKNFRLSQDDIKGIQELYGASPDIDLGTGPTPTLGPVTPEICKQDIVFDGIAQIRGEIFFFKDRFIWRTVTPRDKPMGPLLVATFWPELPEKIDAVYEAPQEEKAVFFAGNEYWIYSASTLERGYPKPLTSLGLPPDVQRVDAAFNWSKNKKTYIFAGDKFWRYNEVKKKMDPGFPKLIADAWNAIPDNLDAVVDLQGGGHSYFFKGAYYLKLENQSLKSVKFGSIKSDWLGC
26S proteasome non-ATPase regulatory subunit 14, sequence (O00487 whole entry, the tested form may be a part): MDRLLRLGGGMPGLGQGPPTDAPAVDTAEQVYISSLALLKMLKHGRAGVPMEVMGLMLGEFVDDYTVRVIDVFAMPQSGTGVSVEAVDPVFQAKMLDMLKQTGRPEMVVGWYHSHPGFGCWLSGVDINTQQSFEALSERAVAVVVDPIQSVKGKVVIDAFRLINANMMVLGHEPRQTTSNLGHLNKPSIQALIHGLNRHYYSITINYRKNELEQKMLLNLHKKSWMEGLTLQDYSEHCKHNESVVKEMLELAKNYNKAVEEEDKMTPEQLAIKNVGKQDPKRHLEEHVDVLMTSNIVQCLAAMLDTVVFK

In the case of N#Cc1ccc(-c2ccc(OCC(=O)NCC(=O)Nc3ccc(F)c(F)c3F)cc2)cc1, the IC50 (Prothrombin) is reported as > 100 µM (inactive), the IC50 [1] is reported as > 100 µM (inactive) and the IC50 [2] is reported as 12.7 µM (active). The IC50 [3] was 26.1 µM (inactive).

In the case of N#Cc1cccc(CSc2nnc(-c3ccccc3)o2)c1, the AC50 [4] is reported as > 52 µM (inactive).

In the case of C[C@@H](CO)N1CC[C@H](CNCc2ccc(Oc3ccccc3)cc2)Oc2c(NC(=O)c3ccncc3)cccc2C1=O, the AC50 [5] is reported as 0.0179 µM (active).

With CN1/C(=C\C(=O)c2cncc(Br)c2)C(C)(C)c2ccccc21 the IC50 [6] was 66.5 µM (inactive) and the IC50 [7] was 23.7 µM (inactive).

With Fc1ccccc1-c1nnc(S)n1Cc1ccccc1 the IC50 (Beta-lactamase [8]) was > 59.6 µM (inactive), the IC50 (Beta-lactamase [9]) was > 59.6 µM (inactive) and the IC50 (Beta-lactamase [10]) was > 59.6 µM (inactive).

In the case of CC1CCN(CCc2nc3cc(NC(=O)Nc4ccccc4)ccc3n2C)CC1, the AC50 [11] is reported as 2.74 µM (active).

With CCOC(=O)C1(CCOc2ccccc2)CCN(Cc2ccc3[nH]c(=O)oc3c2)CC1 the AC50 [12] was > 30 µM (inactive).

For C[C@H](CO)N1C[C@H](C)[C@H](CN(C)C(=O)Nc2ccc3c(c2)OCO3)OCCCC[C@H](C)Oc2ccc(NC(=O)C3CCCCC3)cc2C1=O, the AC50 [13] was 41 µM (active) and the AC50 [14] was 2.21 µM (active).

With CCN=C(S)N(CCCN(CC)CC)Cc1cc2cc3c(cc2nc1O)OCO3 the AC50 [15] was 15.7 µM (active).

In the case of Cc1cccn2c(=O)c(/C=C(\C#N)C(=O)NC3CCS(=O)(=O)C3)c(N3CCC(C(N)=O)CC3)nc12 (configuration not stated), the AC50 (cells) is reported as 4.38 µM (active).
